Measurements as given in patent publication EP2213286A1, “N-(PHENYL OR PYRIDYL)PRENYLAMINE DERIVATIVES FOR THE TREATMENT OF OBESITY, DIABETES AND CARDIOVASCULAR DISEASES” (Zeltia, S.A., priority 2009, dated 2010).

System: adiponectin promoter
Experiment: cells
Assay type: cell-based, human
Conditions: for concentration at which the greatest transactivation was achieved: dose-response curve of commercial activator on the target promoter
Text: The following protocol has been followed for the purpose of analyzing the potential therapeutic activity against obesity, type 2 diabetes mellitus and atherosclerosis (ODA metabolic diseases) of the compounds 1-4: • generating cell lines which have stably integrated human promoters of key genes in the development of ODA diseases; • amplifying the human promoter sequence of the target genes starting from commercial human genomic DNA; • cloning the promoter into a suitable vector which allows knowing the transcriptional activity of the promoter sequence, using the luciferase gene as a reporter gene; • generating stable cell lines for each of the promoters cloned into the reporter vectors; • carrying out the screening test with the compounds of the invention on the stable cell lines; • suitably validating the effect obtained with a certain compound which can modify the transcriptional activity of the promoter.
The selected cell line is C2C12, corresponding to myoblasts from mouse muscle tissue.
The luciferase activity is measured according to the following protocol: • a) 50000 and 1200000 cells/well (and in duplicate) are seeded in a P24 plate. • b) After approximately 24 hours, the medium is removed from the cells and each well is washed with PBS 1x (because DMEM interferes in the measurement of the activity of the reporter gene) • c) 100 µl of luciferase developing reagent are added in each cell (Bright-GloTM Luciferase Assay system- Promega). This reagent carries the reporter gene substrate and luminescence is generated as the product of the enzymatic reaction. The cells which have acquired the reporter gene, and therefore the target promoter, will be luminescent upon being in the presence of said substrate. To record the measurement of luciferase activity, the plate is shaken for 30 seconds right after adding the developing reagent and after 2 minutes, the volume is collected and transferred to a 96-well plate (P96), which can be read in an illuminometer. • d) The suitable luminescence program is selected, such that the reading lasts 5 seconds per well, and the arbitrary luminescence units are recorded for each obtained clone or, in other words, for each stable cell line.
The reaction substrate is photosensitive, therefore it is important to keep the plate in darkness from the time the reagent is added until the luciferase activity is recorded or read in each experiment. Carrying out the screening test: The clones used in the screening are: C2C12 Adipo (adiponectin promoter), C2C12 UCP3 (UCP3 promoter), C2C12 AdR1 (adiponectin receptor 1 promoter) and C2C12 Nmu (neuromedin promoter).
Before any screening experiment, the suitable number of cells for carrying out such experiments must first be provided. To that end, 2 T75 are usually seeded (with approximately 1x10^6 cells in each bottle), such that after four days, the cells have reached confluence and are ready for the screening protocol detailed below to be carried out. • 1. Day 1: 30000 cells per well are seeded in white P96 plates; these plates allow amplifying the luminescence signal and improving the reading. The cells are grown in 100 µl of hygromycin-free medium. • 2. Day 2: 24 hours after the seeding, the cells are stimulated with compounds 1-4. Compounds 1-4 are assayed in duplicate at 1, 5 and 10 µg/ml concentrations, by means of the screening method shown in the following diagram: [formula] ? In the indicated positions, the baseline transcriptional activity of the promoters to be studied is recorded in the presence of the medium in which compounds 1-4 (vehicle) are dissolved. ? In the indicated positions, the transcriptional activity of the promoters to be studied is recorded in the presence of a known commercial activator of the target promoter. […]

[1] = Mus musculus, C2C12, 48 h, read-out: activation ratio

Question: For `COC(=O)c1ccnc(NCC=C(C)CCC=C(C)C)c1` [Compound 1, 2-(3,7-dimethyl-octa-2,6-dienylamino)-isonicotinic acid methyl ester], which fold induction at 0.5 µM [1] is on record?
Answer: The fold induction at 0.5 µM was 1.67.

Question: What about the fold induction at 1 µM [1] of the same molecule?
Answer: The fold induction at 1 µM was 2.02.

Question: What about the fold induction at 5 µM [1] of the same molecule?
Answer: The fold induction at 5 µM was 3.33.

Question: And the fold induction at 10 µM [1]?
Answer: The fold induction at 10 µM was 4.07.

Question: And the fold induction at 25 µM [1]?
Answer: Its fold induction at 25 µM is 4.05.

Question: And the fold induction at 50 µM [1]?
Answer: The fold induction at 50 µM was 3.92.

Question: And the fold induction at 100 µM [1]?
Answer: The fold induction at 100 µM was 3.06.

Question: And the fold induction at 200 µM [1]?
Answer: The fold induction at 200 µM was 2.57.

Question: How did the fold induction at 0.01 µM [1] turn out when `CC(C)=CCNc1cccc(C(=O)O)c1` [Compound 2, 3-(3-methyl-but-2-enylamino)-benzoic acid] was run?
Answer: Its fold induction at 0.01 µM is 1.05.

Question: And the fold induction at 1 µM [1]?
Answer: Its fold induction at 1 µM is 1.69.

Question: What about the fold induction at 5 µM [1] of the same molecule?
Answer: Its fold induction at 5 µM is 2.78.

Question: What about the fold induction at 15 µM [1] of the same molecule?
Answer: The fold induction at 15 µM was 3.43.

Question: And the fold induction at 25 µM [1]?
Answer: The fold induction at 25 µM was 3.57.

Question: And the fold induction at 50 µM [1]?
Answer: The fold induction at 50 µM was 3.66.

Question: What about the fold induction at 200 µM [1] of the same molecule?
Answer: The fold induction at 200 µM was 3.04.

Question: And the fold induction at 400 µM [1]?
Answer: The fold induction at 400 µM was 1.81.

Question: What does the source list for `COC(=O)c1cccc(NCC=C(C)C)c1` [Compound 3, 3-(3-methyl-but-2-enylamino)-benzoic acid methyl ester]?
Answer: fold induction at 0.5 µM [1]: 1.07; fold induction at 1 µM [1]: 1.26; fold induction at 5 µM [1]: 1.98; fold induction at 10 µM [1]: 1.85; fold induction at 25 µM [1]: 2.46; fold induction at 50 µM [1]: 2.61; fold induction at 100 µM [1]: 2.34; fold induction at 200 µM [1]: 1.92

Question: Which fold induction at 0.5 µM [1] does the source give for `COC(=O)c1cccc(NCC=C(C)CCC=C(C)C)c1` [Compound 4, 3-(3,7-dimethyl-octa-2,6-dienylamino)-benzoic acid methyl ester] here?
Answer: The fold induction at 0.5 µM was 2.32.

Question: What about the fold induction at 1 µM [1] of the same molecule?
Answer: Its fold induction at 1 µM is 2.59.

Question: What about the fold induction at 5 µM [1] of the same molecule?
Answer: The fold induction at 5 µM was 3.53.

Question: And the fold induction at 10 µM [1]?
Answer: The fold induction at 10 µM was 3.71.

Question: What about the fold induction at 25 µM [1] of the same molecule?
Answer: Its fold induction at 25 µM is 3.47.

Question: What about the fold induction at 50 µM [1] of the same molecule?
Answer: Its fold induction at 50 µM is 3.28.

Question: And the fold induction at 100 µM [1]?
Answer: The fold induction at 100 µM was 2.53.

Question: And the fold induction at 200 µM [1]?
Answer: The fold induction at 200 µM was 1.78.

Question: For `O=c1c(-c2ccc(O)cc2)coc2cc(O)ccc12` [Daidzein, daidzein, reference compound], which fold induction at 1 µM [1] is on record?
Answer: Its fold induction at 1 µM is 1.68.

Question: And the fold induction at 5 µM [1]?
Answer: Its fold induction at 5 µM is 3.03.

Question: And the fold induction at 10 µM [1]?
Answer: The fold induction at 10 µM was 3.76.

Question: What about the fold induction at 20 µM [1] of the same molecule?
Answer: Its fold induction at 20 µM is 4.04.

Question: What about the fold induction at 50 µM [1] of the same molecule?
Answer: The fold induction at 50 µM was 4.05.

Question: And the fold induction at 100 µM [1]?
Answer: The fold induction at 100 µM was 3.71.

Question: What about the “concentration at which the greatest transactivation was achieved” value of the same molecule?
Answer: Its value is 20 µM.

Question: Which results are given for `O=c1c(-c2ccc(O)cc2)coc2cc(O)cc(O)c12` [Genistein, genistein, reference compound]?
Answer: fold induction at 1 µM [1]: 1.47; fold induction at 5 µM [1]: 2.25; fold induction at 10 µM [1]: 3.59; fold induction at 20 µM [1]: 3.05; fold induction at 50 µM [1]: 1.97; fold induction at 100 µM [1]: 1.75; fold induction at 200 µM [1]: 1.59; concentration at which the greatest transactivation was achieved: 20 µM

Question: How did the “concentration at which the greatest transactivation was achieved” value turn out when `CN(CCOc1ccc(CC2SC(=O)NC2=O)cc1)c1ccccn1` (stereo not drawn) [Rosiglitazone, reference compound] was run?
Answer: The value was 20 µM.
